# Data taken from patent publication US7629318B2, “Immunosuppressant compounds, methods and uses related thereto” (priority 2002, dated 2009).
# Values joined by “and” are separate entries in the source; they are usually repeats but may differ in a detail not shown here. Equal values may be shown once. Read-outs that look alike come from different tables or passages of the source. Numbered stars: 1 amine (or outer) side, 2 acyl side, 3 side chain; on linkers, the order of the positions; unused ones are H or OH. Square brackets hold non-standard residues; d marks the D form. Peptide text beside a SMILES is read from it. * marks the point of attachment. ξ: configuration not given here. Gly(1-amidinopiperidin-4-yl) = N=C(N)N1CCC([C@H](N)C(=O)O)CC1; X1 = CC(C)c1oc([C@H](CO)N[*:1])nc1C(=O)[*:2]; Pro(3R-Ph) = O=C(O)[C@H]1NCC[C@@H]1c1ccccc1; Met(O) = CS(=O)CC[C@H](N)C(=O)O; Tic = O=C(O)[C@@H]1Cc2ccccc2CN1; Cha = N[C@@H](CC1CCCCC1)C(=O)O; NMe(benzyl) = CN(Cc1ccccc1)*; ξDisc = O=C(O)C1NCc2ccccc21; Nle = CCCC[C@H](N)C(=O)O; X2 = OCCOCCN(Cc1ccccc1)*; X3 = OCCOCCN*
# What was measured:
# [1] = Stability of compounds in rat blood plasma; format: in vitro ADME
# In short: (§1)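 Compounds at 5 μM final in rat, mouse or human plasma, incubated at 37 °C and sampled at 0, 6 and 24 h. Proteins precipitated with acetonitrile and the supernatant dried and reconstituted in 50% acetonitrile/0.1% TFA. PBS controls run for unstable compounds.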
# [2] = molecular target: DR4Dw14 (DRA1*0101 DRB1*0404) (Homo sapiens, UniProt P01903+P01911, A100R/A169T/F76Y/I96L/K127E/L162R/M171V/N62H/P40V/Q125Y/R42H/S133A/S149N/S66Y/V209L/W38E); assay: Competitive binding to MHC-II protein DR4Dw14; details: 0404; read-out: Protein binding IC50 (nM) 0404
# In short: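 Each MHC-II allele incubated with compound 16 hours at room temperature in duplicate; controls lacked compound, or both compound and MHC-II. Complexes captured 2 h at 4 °C, bound biotinylated peptide detected via europium-streptavidin and DELFIA enhancement, time-resolved fluorescence read at ex 340/em 613 (615) nm.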
# [3] = molecular target: Cathepsin B1 (EC 3.4.22.1 from bovine spleen) (Bos taurus, UniProt P07688); details: Cathepsin B, 4 h
# [4] = test system: T-cell proliferation, lymph node cells of chimeric 0401-IE transgenic mice; details: for Immunsupressive assays DR4-LN (Max) % Inhibition: maximal inhibition; for IC50: read-out: Immunsupressive assays DR4-LN (IC50); for Immunsupressive assays DR4-LN (Max) % Inhibition / IC50: DR4-LN
# In short: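 Antigen-primed lymph node cells (1.5×10^5/well) from mice lacking murine class II and carrying a chimeric human RA-associated class II transgene, cultured 3 days with ovalbumin at half-maximal dose plus compound (~0.1–200 uM) in serum-free HL-1. Proliferation read by 3H-thymidine incorporation over the final 16 h.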
# [5] = molecular target: T1, Priess (DR4Dw4: DRA1*0101 DRB1*0401) cells (Homo sapiens, UniProt P01903+P01911, A100K/A169T/F76Y/I96L/K127E/L162R/M171V/N62H/P40V/Q125Y/R42H/S133A/S149N/S66Y/V115G/V209L/W38E); assay: Competitive binding to MHC II proteins expressed on Priess cells; format: cell-based
# T1 construct: MHC II Proteins Expressed on PRIESS and LG2 Cells; endogenous in cells; host or cells: Priess cells
# Description: For use in the binding assay the cells were re-suspended in medium containing 1% FCS at a density of 2.5×10^6 cells/ml.
# The assay was performed in sterile 96 well polystyrene microtiter plates. A 10 fold dilution series of compounds (16 nM-1615 μM) in 1% FCS was prepared from 5 or 10 mM compound stock solutions in 10% DMSO/water. 50 μl of each compound dilution were added in duplicates to 50 μl of a 16 μM solution of indicator peptide in 1% FCS. Cell binding was initiated by adding 100 μl of 2.5×10^6 cells/ml 1% FCS to each well. Controls were included containing the DMSO concentration present in the solution with the highest compound concentration. The cells were incubated at 37° C., 6% CO2. After 4 hours the cells were washed with 200 μl PBS and lysed in 200 μl lysis buffer (50 mM sodium phosphate, 150 mM sodium chloride, 1% (w/v) NP-40, 25 mM iodoacetamide, 1 mM PMSF, 3.1% protease inhibitor cocktail: 0.32 g/l of Chymostatin, Antipain, Pepstatin A, Soybean trypsin inhibitor and Leupeptin each, pH 7.5) for 10 min.
# After washing with PBS, 190 μl of cell lysate were transferred to the appropriate wells of the capture plate and incubated for 2 h at 4° C. The wells were washed six times with 200 μl/well cooled (4 to 8° C.) of 1×DELFIA wash (Wallac-ADL-GmbH, Freiburg), incubated with 100 μl of cooled Europium-streptavidin conjugate (Wallac-ADL-GmbH, Freiburg; diluted 1/1000 with DELFIA assay buffer) for 30 minutes at 4° C., again washed six times with cooled 1×DELFIA wash and, finally, incubated with 200 μl cooled DELFIA enhancement solution (Wallac-ADL-GmbH, Freiburg) for one hour at room temperature before reading the time-resolved europium fluorescence at λex Eu^3+: 340 nm and λem Eu^3+: 613 (615) nm (Wallac Victor^2 1420 Multilabel Counter, Wallac-ADL-GmbH, Freiburg).
# [6] = Stability of compounds in human blood plasma; format: in vitro ADME
# In short: as §1
# [7] = test system: T-cell proliferation, DR14-LN; details: for Immunsupressive assays DR14-LN (Max) % Inhibition: maximal inhibition; for IC50: read-out: Immunsupressive assays DR14-LN (IC50)
smiles,measurement,setting,value
"CC(=O)N[C@@H](CC1CCCCC1)C(=O)N[C@H](C(=O)N1Cc2ccccc2C[C@H]1C(=O)N[C@@H](CC[S+](C)[O-])C(=O)N1CC[C@H](c2ccccc2)[C@H]1C(=O)N[C@@H](CO)c1nc(C(=O)N(C)C)c(C(C)C)o1)C1CCN(C(=N)N)CC1 (stereo partly drawn) [Compound P47, Ac-Cha-Gpg-Tic-Met(O)-βPhPro-[S(oxaz)L]-NMe2] (Ac-[Cha][Gly(1-amidinopiperidin-4-yl)][Tic][Met(O)][Pro(3R-Ph)][X1]-NMe2)",Stability (Arbitrary units) Rat 6 h,[1],116 Arbitrary units
same,Stability (Arbitrary units) Rat 24 h,[1],103 Arbitrary units
same,IC50,[2],580 nM
same,Stability (Arbitrary units) Cath B 4 h,[3],100 Arbitrary units
same,Immunsupressive assays DR4-LN (Max) % Inhibition,[4],77%
same,IC50,[4],77 µM
same,IC50,[5],6.9 µM
same,Stability (Arbitrary units) Human 6 h,[6],126 Arbitrary units
same,Stability (Arbitrary units) Human 24 h,[6],140 Arbitrary units
"CSCC[C@H](NC(=O)[C@@H]1Cc2ccccc2CN1C(=O)[C@H](CCCNC(=N)N)NC(=O)[C@H](CC1CCCCC1)NC(C)=O)C(N)=O [Compound P1, Ac-Cha-Arg-Tic-Met-NH2] (Ac-[Cha]R[Tic]M-NH2)",Stability (Arbitrary units) Rat 6 h,[1],11 Arbitrary units
same,Stability (Arbitrary units) Rat 24 h,[1],0 Arbitrary units
same,IC50,[2],2300 nM
same,Stability (Arbitrary units) Cath B 4 h,[3],87 Arbitrary units
same,Immunsupressive assays DR4-LN (Max) % Inhibition,[4],41%
same,IC50,[4],64 µM and 84 µM
same,IC50,[5],11 µM
same,Stability (Arbitrary units) Human 6 h,[6],94 Arbitrary units
"CCCC[C@H](NC(=O)[C@@H]1Cc2ccccc2CN1C(=O)[C@H](CCCNC(=N)N)NC(=O)[C@H](CC1CCCCC1)NC(C)=O)C(=O)N1CC[C@H](c2ccccc2)[C@H]1C(=O)N[C@@H](CO)c1nc(C(=O)N(C)C)c(C(C)C)o1 [Compound P51, Ac-Cha-Arg-Tic-Nle-βPhPro-[S(oxaz)L]-NMe2] (Ac-[Cha]R[Tic][Nle][Pro(3R-Ph)][X1]-NMe2)",Stability (Arbitrary units) Rat 6 h,[1],81 Arbitrary units
same,Stability (Arbitrary units) Rat 24 h,[1],60 Arbitrary units
same,IC50,[2],210 nM
same,Stability (Arbitrary units) Cath B 4 h,[3],103 Arbitrary units
same,Immunsupressive assays DR4-LN (Max) % Inhibition,[4],100%
same,IC50,[4],38 µM and 36 µM
same,Immunsupressive assays DR14-LN (Max) % Inhibition,[7],99%
same,IC50,[7],52 µM
same,Stability (Arbitrary units) Human 6 h,[6],119 Arbitrary units
same,Stability (Arbitrary units) Human 24 h,[6],129 Arbitrary units
"CCCC[C@H](NC(=O)[C@@H]1Cc2ccccc2CN1C(=O)[C@@H](NC(=O)[C@H](CC1CCCCC1)NC(C)=O)C1CCN(C(=N)N)CC1)C(=O)NCCOCCO [Compound P70, Ac-Cha-Gpg-Tic-Nle-N(H)CH2CH2OCH2CH2OH] (Ac-[Cha][Gly(1-amidinopiperidin-4-yl)][Tic][Nle]-X3)",Stability (Arbitrary units) Rat 6 h,[1],83 Arbitrary units
same,Stability (Arbitrary units) Rat 24 h,[1],65 Arbitrary units
same,IC50,[2],290 nM
same,Stability (Arbitrary units) Cath B 4 h,[3],110 Arbitrary units
same,Immunsupressive assays DR4-LN (Max) % Inhibition,[4],54%
same,IC50,[4],42 µM
same,IC50,[5],8.6 µM
same,Stability (Arbitrary units) Human 6 h,[6],116 Arbitrary units
same,Stability (Arbitrary units) Human 24 h,[6],90 Arbitrary units
"CSCC[C@H](NC(=O)[C@@H]1Cc2ccccc2CN1C(=O)[C@@H](NC(=O)[C@H](CC1CCCCC1)NC(C)=O)C1CCN(C(=N)N)CC1)C(=O)N(CCOCCO)Cc1ccccc1 [Compound P102, Ac-Cha-Gpg-Tic-Met-N(Bn)CH2CH2OCH2CH2OH] (Ac-[Cha][Gly(1-amidinopiperidin-4-yl)][Tic]M-X2)",Stability (Arbitrary units) Rat 6 h,[1],131 Arbitrary units
same,Stability (Arbitrary units) Rat 24 h,[1],121 Arbitrary units
same,IC50,[2],2100 nM
same,Stability (Arbitrary units) Cath B 4 h,[3],116 Arbitrary units
same,Immunsupressive assays DR4-LN (Max) % Inhibition,[4],60%
same,IC50,[4],110 µM
same,Immunsupressive assays DR14-LN (Max) % Inhibition,[7],100%
same,IC50,[7],73 µM
same,Stability (Arbitrary units) Human 6 h,[6],110 Arbitrary units
same,Stability (Arbitrary units) Human 24 h,"[6]; human plasma, 24 h",116 Arbitrary units
"CCCC[C@H](NC(=O)[C@@H]1Cc2ccccc2CN1C(=O)[C@@H](NC(=O)[C@H](CC1CCCCC1)NC(C)=O)C1CCN(C(=N)N)CC1)C(=O)N(CCOCCO)Cc1ccccc1 [Compound P101, Ac-Cha-Gpg-Tic-Nle-N(Bn)CH2CH2OCH2CH2OH] (Ac-[Cha][Gly(1-amidinopiperidin-4-yl)][Tic][Nle]-X2)",Stability (Arbitrary units) Rat 6 h,[1],73 Arbitrary units
same,Stability (Arbitrary units) Rat 24 h,[1],81 Arbitrary units
same,IC50,[2],650 nM
same,Stability (Arbitrary units) Cath B 4 h,[3],100 Arbitrary units
same,Immunsupressive assays DR4-LN (Max) % Inhibition,[4],100%
same,immunosuppressive properties as measured by a T-cell activation assay,[4]; dose-response curves,immunosuppressive properties
same,IC50,[4],69 µM and 66 µM
same,Immunsupressive assays DR14-LN (Max) % Inhibition,[7],100%
same,IC50,[7],46 µM
same,Stability (Arbitrary units) Human 24 h,[6],107 Arbitrary units
same,Stability (Arbitrary units) Human 6 h,"[6]; human plasma, 6 h",106 Arbitrary units
"CSCC[C@H](NC(=O)C1c2ccccc2CN1C(=O)[C@H](CCCNC(=N)N)NC(=O)[C@H](CC1CCCCC1)NC(C)=O)C(N)=O (stereo partly drawn) [Compound P12-1, Ac-Cha-Arg-Disc-Met-NH2] (Ac-[Cha]R[ξDisc]M-NH2)",Stability (Arbitrary units) Rat 6 h,[1],67 Arbitrary units
same,Stability (Arbitrary units) Rat 24 h,[1],10 Arbitrary units
same,IC50,[2],860 nM
same,Stability (Arbitrary units) Cath B 4 h,[3],96 Arbitrary units
same,Immunsupressive assays DR4-LN (Max) % Inhibition,[4],5%
same,IC50,[4],> 200 µM
same,IC50,[5],6.7 µM
same,Stability (Arbitrary units) Human 6 h,[6],75 Arbitrary units
same,Stability (Arbitrary units) Human 24 h,[6],0 Arbitrary units
"CCCC[C@H](NC(=O)C1c2ccccc2CN1C(=O)[C@@H](NC(=O)[C@H](CC1CCCCC1)NC(C)=O)C1CCN(C(=N)N)CC1)C(=O)N(C)Cc1ccccc1 (single isomer, unassigned) [Compound P76-1, Ac-Cha-Gpg-Disc-Nle-N(Me)Bn]",Stability (Arbitrary units) Rat 6 h,[1],80 Arbitrary units
same,Stability (Arbitrary units) Rat 24 h,[1],84 Arbitrary units
same,IC50,[2],1400 nM
same,Stability (Arbitrary units) Cath B 4 h,[3],100 Arbitrary units
same,Immunsupressive assays DR4-LN (Max) % Inhibition,[4],103%
same,IC50,[4],34 µM
same,IC50,"[5]; read-out: Cell binding IC50 (uM) Priess (0401), Priess (0401)",9.8 µM
same,Stability (Arbitrary units) Human 6 h,[6],93 Arbitrary units
same,Stability (Arbitrary units) Human 24 h,[6],107 Arbitrary units
"CCCC[C@H](NC(=O)[C@@H]1Cc2ccccc2CN1C(=O)[C@H](CCCNC(=N)N)NC(=O)[C@H](CC1CCCCC1)NC(C)=O)C(=O)N(C)Cc1ccccc1 [Compound P71, Ac-Cha-Arg-Tic-Nle-N(Me)Bn] (Ac-[Cha]R[Tic][Nle]-{NMe(benzyl)})",Stability (Arbitrary units) Rat 6 h,[1],89 Arbitrary units
same,Stability (Arbitrary units) Rat 24 h,[1],53 Arbitrary units
same,Stability (Arbitrary units) Cath B 4 h,[3],97 Arbitrary units
same,Immunsupressive assays DR4-LN (Max) % Inhibition,[4],102%
same,IC50,[4],19 µM
same,Immunsupressive assays DR14-LN (Max) % Inhibition,[7],98% and 96%
same,IC50,[7],15 µM
same,Stability (Arbitrary units) Human 6 h,[6],107 Arbitrary units
same,Stability (Arbitrary units) Human 24 h,[6],90 Arbitrary units
